# According to PubChem BioAssay AID434951 (Broad Institute, 2010):
# The source made the active and inactive calls.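 How the source made its calls: active means a fitted half-maximal concentration EC50 for the rise in nuclear signal no higher than ten times the top dose tested; inconclusive means flat fit with activity between 30% and 70%, or unusable fit; inactive means EC50 beyond ten times the top dose.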
# Biological target: Hypoxia-inducible factor 1-alpha (Homo sapiens) (UniProt Q16665)
# Experiment: activators of HIF1alpha nuclear accumulation, confirmation, imaging, fluorescence, U2OS GFP-HIF1alpha (AID 434951)
# Details: U2OS GFP-HIF1alpha nuclear intensity, high-content imaging
# Sequence of Hypoxia-inducible factor 1-alpha (Homo sapiens) (Q16665 whole entry, looked up): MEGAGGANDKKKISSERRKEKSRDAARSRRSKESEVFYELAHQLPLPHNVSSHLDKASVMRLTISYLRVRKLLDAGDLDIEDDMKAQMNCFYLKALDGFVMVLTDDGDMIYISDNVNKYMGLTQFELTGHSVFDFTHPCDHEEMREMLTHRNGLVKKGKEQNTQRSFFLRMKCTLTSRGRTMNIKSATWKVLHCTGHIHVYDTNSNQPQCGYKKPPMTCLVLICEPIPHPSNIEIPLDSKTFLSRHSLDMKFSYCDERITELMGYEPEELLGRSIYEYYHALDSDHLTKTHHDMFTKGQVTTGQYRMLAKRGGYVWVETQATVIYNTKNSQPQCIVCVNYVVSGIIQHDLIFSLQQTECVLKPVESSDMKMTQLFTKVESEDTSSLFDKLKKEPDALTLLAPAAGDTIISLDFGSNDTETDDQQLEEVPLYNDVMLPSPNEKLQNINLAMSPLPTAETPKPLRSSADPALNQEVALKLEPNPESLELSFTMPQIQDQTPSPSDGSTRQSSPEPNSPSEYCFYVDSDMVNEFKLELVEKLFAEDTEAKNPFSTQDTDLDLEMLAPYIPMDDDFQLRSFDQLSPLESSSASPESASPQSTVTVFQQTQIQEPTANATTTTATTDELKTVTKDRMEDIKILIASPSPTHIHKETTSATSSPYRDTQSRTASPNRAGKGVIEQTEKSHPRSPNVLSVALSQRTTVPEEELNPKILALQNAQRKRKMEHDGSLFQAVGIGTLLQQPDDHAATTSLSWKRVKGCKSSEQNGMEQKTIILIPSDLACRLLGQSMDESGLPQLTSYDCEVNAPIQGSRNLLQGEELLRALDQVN
row,SMILES,EC50
1,CCOC(=O)C1=C(C)NC(C)=C(C(=O)OCC)C1C(=O)OCC(=O)N(C)C1CCS(=O)(=O)C1 (stereo not given),> 35 µM (inactive)
2,Cc1cc(C)c2nc(NNC(=O)c3ccc(S(=O)(=O)N4CCCC(C)C4)cc3)sc2c1 (stereo not given),7.23 µM
3,COc1ccc2nc(NC(=O)CSc3nccc(C)n3)sc2c1,> 35 µM (inactive)
4,CN(C)/N=C/C=C1\CCC/C(=C/c2cccs2)C1=O,> 35 µM (inactive)
5,CCOC(=O)c1ccc(S(=O)(=O)NNC(=O)COc2ccccc2C)cc1,> 35 µM (inactive)
6,O=C(N/N=C/c1cc(Br)cc(Cl)c1O)c1ccc2c(c1)OCO2,> 35 µM (inactive)
7,CCn1nc(NS(=O)(=O)c2ccc(NC(C)=O)cc2)c2cc3cccc(C)c3nc21,> 35 µM (inactive)
8,CCOc1nc(Nc2ccc(OC)cc2)nc(OCC)n1,> 35 µM (inactive)
9,COc1ccccc1NC(=O)CN(C)S(=O)(=O)c1cccc2cccnc12,> 35 µM (inactive)
10,C=CCNC(=S)N/N=C(\C)c1ccccn1,6.53 µM
11,Cn1nc(C(F)(F)F)cc1C(=O)NC1CCCCCC1,> 35 µM (inactive)
12,Cc1onc(-c2c(Cl)cccc2Cl)c1C(=O)N=C(N)N1CCCC1,> 35 µM (inactive)
13,Cc1ccc(Cl)cc1N1CCN(CC(O)COCc2ccco2)CC1 (stereo not given),> 35 µM (inactive)
14,O=C(NCc1cccs1)C1CC(=O)N(C2CCCC2)C1 (stereo not given),> 35 µM (inactive)
15,O=C(NCc1ccco1)c1cc(-c2cccs2)on1,34.5 µM
16,O=C1CCCc2ccccc2N1Cc1ccc(F)cc1,> 35 µM (inactive)
17,CCOC(=O)c1c(NS(=O)(=O)c2ccccc2)n(CCCOC)c2nc3ccccc3nc12,> 35 µM (inactive)
18,COc1cccc(/C=N/Nc2ccc([N+](=O)[O-])cn2)c1O,4.93 µM
19,COc1cnc(-c2ccccn2)nc1NC(C)C,1.85 µM
20,N#Cc1ccccc1OCCCN1CCC(Cc2ccccc2)CC1,> 35 µM (inactive)
21,COc1ccc(NC(=S)c2ccc(N(C)C)cc2)cc1,> 35 µM (inactive)
22,CCCOc1ccc(/C=N/NC(=O)CSc2ccccn2)cc1OC,> 35 µM (inactive)
23,Cc1nc2nc3c(cn2n1)C(=O)CC(c1ccccc1)C3 (stereo not given),> 35 µM (inactive)
24,O=C(CCCCCN1C(=O)c2ccccc2C1=O)Nc1ccc2c(c1)OCCO2,> 35 µM (inactive)
25,COc1ccc2nc(NC(=O)Nc3ccccc3OC)sc2c1,> 35 µM (inactive)
26,CCN(CC)c1ccc(/C=N/Nc2nc3ccccc3[nH]2)c(O)c1,6.95 µM
27,CC(C)Cn1c(/C=N/Nc2nc3ccccc3[nH]2)nc2ccccc21,9.05 µM

row,SMILES,EC50
1,CCOc1ccc(/C=N/NC(=O)c2[nH]ncc2Br)c(O)c1,10.2 µM
2,COc1ccc(/C=N/NC(=O)c2cccnc2)cc1CN1CCN(c2ccc(F)cc2)CC1,> 35 µM (inactive)
3,O=C(O)c1cccnc1SCc1ccccc1Cl,> 35 µM (inactive)
4,CCOc1cc(/C=N/NC(=O)c2c(-c3ccccc3)noc2C)ccc1O,> 35 µM (inactive)
5,O=C(CCCOc1ccc(Cl)cc1Cl)N/N=C/c1ccccc1O,7.41 µM
6,c1ccc(N=Nc2ccc3cccccc2-3)cc1,33.1 µM
7,COc1ccc(/C=C2\SC(=O)N(CCC(=O)N(C)C3CCS(=O)(=O)C3)C2=O)cc1 (stereo not given),> 35 µM (inactive)
8,COc1cccc(/C=N/NC(=O)c2[nH]nc3c2CCc2ccccc2-3)c1O,1.94 µM
9,Oc1c(CN2CCCCC2)cc(COCc2ccccc2)c2cccnc12,11.9 µM
10,CCCC(=O)NC(c1ccc(OC)cc1)c1ccc2cccnc2c1O (stereo not given),7.24 µM
11,COc1ccc(F)cc1CSc1nnnn1-c1ccc(O)cc1,> 35 µM (inactive)
12,O=C(CNC(=O)C(c1ccccc1)c1ccccc1)N/N=C/c1ccc(O)cc1O,> 35 µM (inactive)
13,CCCCCCCC1CC(=O)C=C(C)C1C(=O)OCC (stereo not given),> 35 µM (inactive)
14,COc1ccc(CC(=O)Nc2cccc(-c3nnc(-c4ccccc4)o3)c2)cc1OC,> 35 µM (inactive)
15,COc1ccccc1C/C(N)=N/O,> 35 µM (inactive)
16,Cc1ccc(/C=N/NC(=O)c2c(-c3ccccc3)noc2C)c(O)c1,6.81 µM
17,COc1cc(C(=O)NCCc2nc3ccccc3n2C)cc(OC)c1OC,> 35 µM (inactive)
18,COc1cccc(/C=N/Nc2ncnc3scc(-c4ccccc4)c23)c1O,1.27 µM
19,FC(F)Oc1ccc(NC(=S)Nc2ccc3cn[nH]c3c2)cc1,> 35 µM (inactive)
20,COc1ccc(CCNC(=O)c2cc(-c3ccco3)on2)cc1OC,10.8 µM
21,Oc1ccc(/C=N/Nc2ccc(C(F)(F)F)cn2)c(O)c1,29.8 µM
22,CC(=O)Nc1sc(-c2ccccc2)nc1-c1ccccc1,> 35 µM (inactive)
23,COc1ccc(N/N=C/c2c(C(=O)O)ccc3ccccc23)cc1,6.81 µM
24,COc1ccc(/C(C)=N/NC(=O)c2cccc(S(=O)(=O)N3CCCC3)c2)c(O)c1,5.8 µM
25,O=[N+]([O-])c1cccc(/C=C/c2ccc3cccc(O)c3n2)c1,33.9 µM
26,COC(=O)Nc1ccc(=O)n(Cc2c(Cl)cccc2Cl)c1,> 35 µM (inactive)
27,Cc1ccc(-c2nc(CS(=O)(=O)CC(=O)NC3CCC(C)CC3)c(C)o2)cc1 (stereo not given),> 35 µM (inactive)

row,SMILES,EC50
1,CCOC(=O)c1sc(Nc2cccc(Cl)c2)nc1C,> 35 µM (inactive)
2,COc1ccc(C2CC(c3cccs3)=NN2C(=O)CSc2nc(=O)n3cc(C)ccc3n2)cc1 (stereo not given),> 35 µM (inactive)
3,O=C(N/N=C/c1ccc(O)cc1O)c1ccc(CN2C(=O)c3cccc4cccc2c34)cc1,19.6 µM
4,Cc1nnc(N/N=C/c2ccccn2)[nH]c1=O,5.75 µM
5,COC(=O)c1ccc(-n2cncn2)c([N+](=O)[O-])c1,> 35 µM (inactive)
6,O=C(N/N=C/c1cc(Br)ccc1O)c1ccncc1,> 35 µM (inactive)
7,COc1ccc(CNC(=S)N/N=C/c2ccc(O)c(OC)c2)cc1,> 35 µM (inactive)
8,O=C1CCCN2N=C(SCC(=O)Nc3ccc(Br)cc3)SC2=N1,26.7 µM
9,CC1CN(S(=O)(=O)c2cccc(C(=O)N(CCc3ccccc3)Cc3ccccc3)c2)CC(C)O1 (stereo not given),> 35 µM (inactive)
10,CCc1nc(SCC(=O)c2ccccc2)c2ccccc2n1,> 35 µM (inactive)
11,O=C(CS(=O)(=O)c1ccccc1)Nc1ccc(N2CCOCC2)cc1,> 35 µM (inactive)
12,COCCn1c(=NC(=O)c2ccc(S(=O)(=O)N3CCCc4ccccc43)cc2)sc2cc(S(C)(=O)=O)ccc21,> 35 µM (inactive)
13,OCCCNc1c2ccccc2nc2ccccc12,> 35 µM (inactive)
14,CC1CC(C)CN(S(=O)(=O)c2ccc3c(c2)oc(=O)n3CC(=O)NCCCOC(C)C)C1 (stereo not given),> 35 µM (inactive)
15,COc1ccc(OC)c(NC(=O)CCc2nnc3ccc(NCc4ccco4)nn23)c1,> 35 µM (inactive)
16,C/C(=N\NC(=O)Cc1ccc(Cl)cc1)c1ccccn1,5.92 µM
17,CC1=NN2C(=N)/C(=C\c3cc(C)n(Cc4ccccc4)c3C)C(=O)N=C2S1,> 35 µM (inactive)
18,C=CCOc1nc(-c2ccccc2Cl)nc2ccccc12,> 35 µM (inactive)
19,Cn1c(CC(=O)Nc2ccccc2)cc2ccccc21,> 35 µM (inactive)
20,COc1cccc(/C=N/Nc2nc3ccccc3[nH]2)c1O,13.1 µM
21,Oc1ccc2ccccc2c1N=Nc1nccs1,5.74 µM
22,CCN(CC)c1ccc(/C=N/NC(=O)c2cccc(S(=O)(=O)Nc3ccccc3OC)c2)c(O)c1,0.838 µM
23,O=C1C=C(c2ccccc2)CC(c2cccs2)C1n1cnc([N+](=O)[O-])c1 (stereo not given),> 35 µM (inactive)
24,COc1ccccc1N(CC(=O)NC1CCCCC1)S(C)(=O)=O,> 35 µM (inactive)
25,COc1ccc2c(c1)c(C(=O)CN1CCc3ccccc3C1)c(C)n2C,> 35 µM (inactive)
26,Nc1nc2nc(-c3cccs3)cc(C(F)(F)F)n2n1,> 35 µM (inactive)
27,Cc1occc1C(=O)NC1CCCCCC1,> 35 µM (inactive)

row,SMILES,EC50
1,COc1ccc(N2CCN(C(=O)COc3ccc4c(C)c(C)c(=O)oc4c3C)CC2)cc1,> 35 µM (inactive)
2,O=C(N/N=C\c1cc(Br)ccc1O)c1ccc(S(=O)(=O)N2CCCCC2)cc1,6.74 µM
3,O=C(NCCc1ccccc1)C1CCN(S(=O)(=O)c2ccc(-n3cnnn3)cc2)CC1,> 35 µM (inactive)
4,COc1ccccc1N=Nc1ccc(O)c2ncccc12,7.58 µM
5,C/C(=N\NC(=O)c1cc(-c2cccnc2)nc2ccccc12)c1ccccc1O,21.9 µM
6,CCCCC(=O)NC(c1ccccc1)c1ccc2cccnc2c1O (stereo not given),17.4 µM
7,CCn1c(SCC(=O)c2cc(C)ccc2C)nc2cc(S(=O)(=O)N3CCOCC3)ccc21,> 35 µM (inactive)
8,Cc1c(C(=O)N2CCCCC2)c(S(=O)(=O)NCCc2ccc(Cl)cc2)c(C)n1C,> 35 µM (inactive)
9,CCOC(=O)c1c(-c2ccccc2)oc2cc(CN(C)C)c(O)c(CN(C)C)c12,5.53 µM
10,Cc1ccc(OCCNC(=O)CCc2nc3sc4c(c3c(=O)[nH]2)CCCC4)cc1,> 35 µM (inactive)
11,COc1ccc(CNC(=O)CN(CC2CCCO2)C(=O)CNS(=O)(=O)c2ccc(C)cc2)cc1 (stereo not given),> 35 µM (inactive)
12,CCOC(=O)C1CCN(C(=O)C2CCCN(c3ncnc4c3nc3n4CCCCC3)C2)CC1 (stereo not given),> 35 µM (inactive)
13,COc1ccccc1C(=O)Nc1ccccc1SC(=O)c1ccccc1OC,> 35 µM (inactive)
14,CSc1ccc(/C=N/Nc2ccc(Cl)c(C(=O)O)c2)cc1,> 35 µM (inactive)
15,Cc1ccn2cc(-c3ccc(O)c(O)c3)nc2c1,> 35 µM (inactive)
16,Cc1cccc(NC(=S)N2CCC(N(C)CC3CCCO3)CC2)c1 (stereo not given),> 35 µM (inactive)
17,CC1(C)CC(NC(=O)CCC2CCCC2)CC(C)(C)N1,> 35 µM (inactive)
18,O=C(N/N=C/c1ccccc1O)c1cccc(C(F)(F)F)c1,14.3 µM
19,FC(F)(F)c1ccc(-c2nc(=S)[nH][nH]2)cc1,> 35 µM (inactive)
20,COc1ccc(-c2nnc(-c3cc4c(ccc5ccccc54)oc3=O)o2)cc1,> 35 µM (inactive)
21,Cc1nnsc1C(=O)N/N=C/c1ccc2ccccc2c1O,3.13 µM
22,COc1ccc(CN(C)CC(=O)Nc2ccc(SC(F)F)cc2)cc1OC,> 35 µM (inactive)
23,COc1ccccc1-c1cc(C(F)(F)F)nc(S(=O)(=O)CCCC(=O)N2CCOCC2)n1,> 35 µM (inactive)
24,COc1cccc(CN2CCC(N(CCc3ccccc3)Cc3ccccc3)CC2)c1OC,> 35 µM (inactive)
